Values after ≈ are worked out from the molar mass of the structure shown. Read-outs that look alike come from different tables or passages of the source.
Tests used:
[1] = test system: Pseudomonas aeruginosa 1946; assay: MIC by the agar dilution method; format: cell-based
Excerpt: (§1) The minimum inhibitory concentration (MIC) of saccharocin and 3'-oxysaccharocin by the agar dilution method are shown in Table 1.

Shigella sonnei E33 = assay: MIC by the agar dilution method; format: cell-based
Excerpt: as §1

[2] = test system: Enterobacter aerogenes 055; assay: MIC by the agar dilution method; format: cell-based; conditions: Klebsiella aerogenes
Excerpt: as §1

[3] = test system: Streptococcus pyogenes N.Y.5; assay: MIC by the agar dilution method; format: cell-based
Excerpt: as §1

[4] = test system: Pseudomonas martfiriae 1850; assay: MIC by the agar dilution method; format: cell-based
Excerpt: as §1

[5] = test system: Pseudomonas aeruginosa ML4561; assay: MIC by the agar dilution method; format: cell-based
Excerpt: as §1

[6] = test system: Pseudomonas aeruginosa 2512; assay: MIC by the agar dilution method; format: cell-based
Excerpt: as §1

[7] = test system: Staphylococcus aureus ATCC 6538P; assay: MIC by the agar dilution method; format: cell-based; conditions: ATCC6538P
Excerpt: as §1

[8] = test system: Escherichia coli W3630RGN14; assay: MIC by the agar dilution method; format: cell-based
Excerpt: as §1

Proteus morganii 0239 = assay: MIC by the agar dilution method; format: cell-based; conditions: Morganella morganii
Excerpt: as §1

[9] = test system: Klebsiella pneumoniae ATCC 10031; assay: MIC by the agar dilution method; format: cell-based; conditions: ATCC10031
Excerpt: as §1

[10] = test system: Salmonella enteritidis gaertner; assay: MIC by the agar dilution method; format: cell-based; conditions: Salmonella enterica
Excerpt: as §1

[11] = test system: Pseudomonas aeruginosa ML4561 Rm3166; assay: MIC by the agar dilution method; format: cell-based; conditions: ML4561RM3166
Excerpt: as §1

[12] = test system: Staphylococcus aureus MS27; assay: MIC by the agar dilution method; format: cell-based
Excerpt: as §1

[13] = test system: Staphylococcus aureus 0119; assay: MIC by the agar dilution method; format: cell-based
Excerpt: as §1

Serratia marcescens = assay: MIC by the agar dilution method; format: cell-based
Excerpt: as §1

[14] = test system: Bacillus subtilis ATCC6633; assay: MIC by the agar dilution method; format: cell-based
Excerpt: as §1

Pseudomonas aeruginosa = assay: MIC by the agar dilution method; format: cell-based; conditions: Pseudomonas aeruginosa (no strain code)
Excerpt: as §1

Proteus rettgeri ACR = assay: MIC by the agar dilution method; format: cell-based; conditions: Providencia rettgeri
Excerpt: as §1

Pseudomonas putida 1842 = assay: MIC by the agar dilution method; format: cell-based
Excerpt: as §1

[15] = test system: Enterobacter cloacae GN336; assay: MIC by the agar dilution method; format: cell-based
Excerpt: as §1

[16] = test system: Staphylococcus epidermidis ap-al-1; assay: MIC by the agar dilution method; format: cell-based; conditions: APAL1
Excerpt: as §1

[17] = test system: Escherichia coli NIHJ-JC2; assay: MIC by the agar dilution method; format: cell-based; conditions: NIHJJC2
Excerpt: as §1

[18] = test system: Citrobacter freundie GN346; assay: MIC by the agar dilution method; format: cell-based
Excerpt: as §1

[19] = test system: Pseudomonas aeruginosa ML4561 Rm3164-1; assay: MIC by the agar dilution method; format: cell-based; conditions: ML4561RM31641
Excerpt: as §1

Escherichia coli W3630 = assay: MIC by the agar dilution method; format: cell-based
Excerpt: as §1

[20] = test system: Pseudomonas aeruginosa ML4561 RP4; assay: MIC by the agar dilution method; format: cell-based; conditions: ML4561RP4
Excerpt: as §1

Solubility = format: physicochemical
[21] = test system: Saccharopolyspora sp. AC 3440; assay: Resistance on antibiotics of the producing strain; format: cell-based
[22] = acetone, benzene, ethyl acetate
[23] = 336 h, resistance of producing strain AC 3440, 37° C., 14 days, read-out: MIC
[24] = resistance of producing strain AC 3440, 37° C., 14 days

`CNC1C(OC2OC(CO)C(O)C(O)C2O)OC2C(O)C(N)C(OC3C(N)CC(N)C(O)C3O)OC2C1O` (stereo not drawn) [3'-oxysaccharocin] showed an MIC [1] greater than 50 µg/mL, an MIC (Shigella sonnei E33) of 25 µg/mL (≈ 44.9 µM) and an MIC [2] of 12.5 µg/mL (≈ 22.5 µM). It also gave an MIC [3] of 50 µg/mL (≈ 89.8 µM), an MIC [4] greater than 50 µg/mL and an MIC [5] of 50 µg/mL (≈ 89.8 µM). For the same compound, the MIC [6] was 50 µg/mL (≈ 89.8 µM), the MIC [7] was 25 µg/mL (≈ 44.9 µM) and the MIC [8] was 12.5 µg/mL (≈ 22.5 µM). The MIC (Proteus morganii 0239) was 12.5 µg/mL (≈ 22.5 µM), the MIC [9] was 12.5 µg/mL (≈ 22.5 µM) and the MIC [10] was 12.5 µg/mL (≈ 22.5 µM). It also gave an MIC [11] of 25 µg/mL (≈ 44.9 µM), an MIC [12] of 25 µg/mL (≈ 44.9 µM) and an MIC [13] of 12.5 µg/mL (≈ 22.5 µM). It also gave an MIC (Serratia marcescens) of 12.5 µg/mL (≈ 22.5 µM), an MIC [14] of 3.1 µg/mL (≈ 5.57 µM) and an MIC (Pseudomonas aeruginosa) of 50 µg/mL (≈ 89.8 µM). The MIC (Proteus rettgeri ACR) was 12.5 µg/mL (≈ 22.5 µM), the MIC (Pseudomonas putida 1842) was 50 µg/mL (≈ 89.8 µM) and the MIC [15] was 12.6 µg/mL (≈ 22.6 µM). For the same compound, the MIC [16] was 12.5 µg/mL (≈ 22.5 µM), the MIC [17] was 12.5 µg/mL (≈ 22.5 µM) and the MIC [18] was 12.5 µg/mL (≈ 22.5 µM). The MIC [19] was 50 µg/mL (≈ 89.8 µM), the MIC (Escherichia coli W3630) was 3.1 µg/mL (≈ 5.57 µM) and the MIC [20] was 50 µg/mL (≈ 89.8 µM). For the same compound, the Solubility (Solubility; [22]) was “insoluble” and the Solubility (Solubility; water) was “soluble”.

`NC[C@H]1O[C@H](O[C@H]2[C@H](O)[C@@H](O[C@H]3O[C@H](CO)[C@@H](O)[C@H](N)[C@H]3O)[C@H](N)C[C@@H]2N)[C@H](O)[C@@H](O)[C@@H]1O` [Kanamycin] showed an MIC ([21]; 336 h) greater than 100 µg/mL.

Work on `CCCC(=O)OC1C(C)OC(OC2C(C)OC(OC3C(CC=O)CC(C)C(O)C=CC=CCC(C)OC(=O)CC(O)C3OC)C(O)C2N(C)C)CC1(C)O` (stereo not drawn) [Leucomycin A5] yielded an MIC [21, 23] greater than 100 µg/mL.

Work on `NC[C@@H]1O[C@H](O[C@H]2[C@@H](O)[C@H](O[C@@H]3[C@@H](O)[C@H](N)C[C@H](N)[C@H]3O[C@H]3O[C@H](CO)[C@@H](O)[C@H](O)[C@H]3N)O[C@@H]2CO)[C@H](N)[C@@H](O)[C@@H]1O` [Paromomycin] yielded an MIC [21, 23] of 50 µg/mL (≈ 81.2 µM).

In the case of `CO[C@H]1/C=C/O[C@@]2(C)Oc3c(C)c(O)c4c(O)c(c(/C=N/N5CCN(C)CC5)c(O)c4c3C2=O)NC(=O)/C(C)=C\C=C\[C@H](C)[C@H](O)[C@@H](C)[C@@H](O)[C@@H](C)[C@H](OC(C)=O)[C@@H]1C` [Rifampicin], the MIC ([21]; 336 h) is reported as less than 12.5 µg/mL.

`CNC1C(OC2OC(CO)C(O)C(O)C2O)OC2CC(N)C(OC3C(N)CC(N)C(O)C3O)OC2C1O` (stereo not drawn) [Saccharocin] showed an MIC [1] greater than 100 µg/mL, an MIC (Shigella sonnei E33) of 6.3 µg/mL (≈ 11.7 µM) and an MIC [2] of 6.3 µg/mL (≈ 11.7 µM). For the same compound, the MIC [3] was 25 µg/mL (≈ 46.2 µM), the MIC [4] was greater than 100 µg/mL and the MIC [5] was 25 µg/mL (≈ 46.2 µM). The MIC [6] was 50 µg/mL (≈ 92.5 µM), the MIC [7] was 12.5 µg/mL (≈ 23.1 µM) and the MIC [8] was 3.1 µg/mL (≈ 5.73 µM). It also gave an MIC (Proteus morganii 0239) of 6.3 µg/mL (≈ 11.7 µM), an MIC [9] of 3.1 µg/mL (≈ 5.73 µM) and an MIC [10] of 6.3 µg/mL (≈ 11.7 µM). It also gave an MIC [11] of 12.5 µg/mL (≈ 23.1 µM), an MIC [12] of 12.5 µg/mL (≈ 23.1 µM) and an MIC [13] of 6.3 µg/mL (≈ 11.7 µM). For the same compound, the MIC (Serratia marcescens) was 6.3 µg/mL (≈ 11.7 µM), the MIC [14] was 0.8 µg/mL (≈ 1.48 µM) and the MIC (Pseudomonas aeruginosa) was 25 µg/mL (≈ 46.2 µM). For the same compound, the MIC (Proteus rettgeri ACR) was 3.1 µg/mL (≈ 5.73 µM), the MIC (Pseudomonas putida 1842) was 25 µg/mL (≈ 46.2 µM) and the MIC [15] was 6.3 µg/mL (≈ 11.7 µM). It also gave an MIC [16] of 6.3 µg/mL (≈ 11.7 µM), an MIC [17] of 6.3 µg/mL (≈ 11.7 µM) and an MIC [18] of 6.3 µg/mL (≈ 11.7 µM). It also gave an MIC [19] of 25 µg/mL (≈ 46.2 µM), an MIC (Escherichia coli W3630) of 1.6 µg/mL (≈ 2.96 µM) and an MIC [20] of 12.5 µg/mL (≈ 23.1 µM). For the same compound, the Solubility (Solubility; [22]) was “insoluble” and the Solubility (Solubility; water) was “soluble”.

`[H]/N=C(/N)N[C@H]1[C@H](O)[C@@H](O)[C@H](O[C@@H]2O[C@@H](C)[C@](O)(C=O)[C@H]2O[C@@H]2O[C@@H](CO)[C@H](O)[C@@H](O)[C@@H]2NC)[C@@H](N/C(N)=N\[H])[C@@H]1O` [Streptomycin] showed an MIC [21, 23] of 25 µg/mL (≈ 43 µM).

With `NC[C@H]1O[C@H](O[C@H]2[C@H](O)[C@@H](O[C@H]3O[C@H](CO)[C@@H](O)[C@H](N)[C@H]3O)[C@H](N)C[C@@H]2N)[C@H](N)C[C@@H]1O` [Tobramycin] the MIC [21, 23] was greater than 100 µg/mL.

Compound Gentamicin has an MIC [21, 24] greater than 100 µg/mL.

Neomycin gave an MIC [21, 24] of 100 µg/mL.

Reference: patent publication US4482707A, “Aminoglycoside antibiotic saccharocins” (Toyo Jozo Kabushiki Kaisha, priority 1981, dated 1984)
